From doi:10.1101/2023.07.10.548257 (bioRxiv, 2024)
Residue numbers refer to the chain shown, from its start.

Tests used:
full-length SHP2^T42A = target: T1, full-length SHP2^T42A (Homo sapiens, UniProt Q06124, T42A); assay: SHP2 activation assay using phosphopeptides (DiFMUP), SHP2 T42A; type: biochemical; conditions: activation of full-length SHP2 T42A (0.05 nM) by phosphopeptide; DiFMUP substrate; HEPES pH 7.2 assay buffer; mean of N (column N)
T1 construct: Full-length SHP2 constructs were diluted in assay buffer; His6-TEV (N, cleaved yes); made in house; host or cells: E. coli BL21(DE3)
T1 sequence (Q06124 1-593 T42A): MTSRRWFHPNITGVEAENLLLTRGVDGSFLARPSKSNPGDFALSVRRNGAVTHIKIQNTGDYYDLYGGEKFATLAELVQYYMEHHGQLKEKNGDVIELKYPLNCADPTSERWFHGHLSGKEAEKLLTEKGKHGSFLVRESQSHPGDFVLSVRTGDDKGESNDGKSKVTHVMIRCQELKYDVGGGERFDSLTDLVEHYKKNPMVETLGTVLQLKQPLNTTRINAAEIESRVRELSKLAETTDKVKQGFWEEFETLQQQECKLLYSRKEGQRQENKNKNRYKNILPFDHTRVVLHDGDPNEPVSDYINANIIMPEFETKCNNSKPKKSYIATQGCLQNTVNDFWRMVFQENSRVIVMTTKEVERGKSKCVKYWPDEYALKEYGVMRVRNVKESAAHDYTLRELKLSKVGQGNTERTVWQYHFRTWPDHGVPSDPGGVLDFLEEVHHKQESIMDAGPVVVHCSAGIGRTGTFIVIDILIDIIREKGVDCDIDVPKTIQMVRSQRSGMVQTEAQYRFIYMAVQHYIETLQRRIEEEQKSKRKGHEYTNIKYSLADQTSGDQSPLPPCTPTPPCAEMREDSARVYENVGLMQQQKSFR

full-length SHP2^WT = target: T2, full-length SHP2^WT (Homo sapiens, UniProt Q06124); assay: SHP2 activation assay using phosphopeptides (DiFMUP), SHP2 WT; type: biochemical; conditions: activation of full-length SHP2 WT (0.05 nM) by phosphopeptide; DiFMUP substrate; 60 mM HEPES pH 7.2, 75 mM KCl, 75 mM NaCl, 1 mM EDTA, 0.05% Tween-20, 0.5 mM TCEP; fluorescence read every 25 s for 6 min; mean of N (column N)
T2 construct: Full-length SHP2 constructs were diluted in assay buffer; His6-TEV (N, cleaved yes); made in house; host or cells: E. coli BL21(DE3)
T2 sequence (Q06124 1-593): T1 sequence (Q06124 1-593 T42A) with A42T
Method: SHP2 activation assays using phosphopeptides
Full-length SHP2 constructs were diluted in assay buffer (60 mM HEPES pH 7.2, 75 mM KCl, 75 mM NaCl,1 mM EDTA, 0.05% Tween-20, with 0.5 mM TCEP freshly added) to a 2X concentration of 0.1 nM. Peptides were serially diluted in assay buffer, with the last point of the concentration series fully without peptide. 15 μL of peptide and 15 μL of 800 μM DiFMUP was added to a black 96-well half area plate. Right before starting the plate reader assay, 30 μL SHP2 was added to each well a Supplementary Information - page 4 of 18 […]
final concentration of 0.05nM. Kinetic measurements (Ex 358/Em […]) were taken on a BioTek Neo2 plate reader every 25 seconds for 6 minutes. […]
OD600 reached 0.5. 20 mL of cell suspension was induced at 25 °C using a final concentration of 0.4% arabinose until the OD600 ~ 1 (after approximately 4 hours). The cells were spun down at 4000 rpm for 15 minutes, and the pellet was resuspended in PBS so that the OD600 ~1.5. The cells were stored in the fridge and used within a week.
For each sample, 75 μL of Dynabeads™ FlowComp™ Flexi Kit were washed twice in 1 mL SH2 buffer (50 mM HEPES pH 7.5, 150 mM NaCl, 1 mM TCEP, and 0.2% BSA) on a magnetic rack.
The beads were then resuspended in 75 μL of SH2 buffer. SH2 domains were thawed quickly and 20 μM of protein was added to the beads. SH2 buffer was added up to 150 μL, and the suspension was incubated for 1 hour at 4 °C while rotating. After 1 hour, the suspension was placed on a magnetic rack and washed twice with 1 mL SH2 buffer.
Preparing the phosphorylated cells
150 μL of prepared cells per sample were spun down for 4000 rpm for 5 minutes at 4 °C.
Kinase screen buffer was prepared (50 mM Tris, 10 mM magnesium chloride, 150 mM sodium chloride; add 2 mM sodium orthovanadate and 1 mM TCEP fresh) and the cells of each sample were resuspended in 100 μL kinase screen buffer. Kinases c-Src, c-Abl, AncSZ, Eph1B were added to a final concentration of 2.5 µM each, creatine phosphate was added to a final concentration of 5 mM, and phosphokinase was added to a final concentration of 50 µg/mL. The suspension was incubated at 37 °C for 5 minutes before ATP was added to a final concentration of 1 mM. This mixture was incubated at 37 °C for 3 hours. After 3 hours, EDTA was added to a final concentration of 25 mM to quench the reaction. The input library control sample was not phosphorylated. These cells were spun down at 4000 rpm for 15 minutes at 4 °C. The cells were then resuspended in 100 µL of SH2 buffer + 0.1% BSA. Phosphorylation of the cells was confirmed by labeling with the PY20-PerCP-eFluor 710 pan-phosphotyrosine antibody followed by analysis via flow cytometry.
Enriching for cells displaying high-affinity phosphopeptide ligands
100 μL of phosphorylated cells were mixed with 75 µL SH2-beads for 1 hour at 4 °C while rotating. After 1 hour, samples were placed on a magnetic rack, supernatant was removed and 1 mL SH2 buffer was added to each sample. This was rotated for 30 minutes at 4 °C to wash the beads.
After this wash, the beads were placed on a magnetic rack, the supernatant was removed and 50 µL […]
Preparing sequencing samples & deep sequencing
All SH2-selected samples and the input library control were resuspended in 50 µL MilliQ water, vortexed, and boiled for 10 minutes at 100 °C. The boiled lysate was used as the DNA template in a PCR reaction using the TruSeq-eCPX-Fwd and TruSeq-eCPX-Rev primers. The mixture resulting from this PCR was used directly into a second PCR to append Illumina sequencing adaptors and Supplementary Information - page 5 of 18

## CC[C@H](C)[C@H](NC(=O)[C@@H](NC(=O)[C@H](C)NC(=O)[C@H](Cc1ccc(OP(=O)(O)O)cc1)NC(=O)[C@@H](NC(=O)[C@@H]1CCCN1C(=O)[C@H](CCC(=O)O)NC(=O)[C@@H]1CCCN1C(=O)[C@H](CO)NC(=O)[C@@H](NC(C)=O)C(C)C)[C@@H](C)CC)[C@@H](C)O)C(=O)N[C@@H](CC(=O)O)C(=O)N[C@@H](CC(=O)O)C(=O)N[C@@H](CC(C)C)C(N)=O
full-length SHP2^T42A
  EC50: 6.96 µM
full-length SHP2^WT
  EC50: 39.4 µM

## CC(=O)N[C@@H](CO)C(=O)N[C@H](C(=O)NCC(=O)N[C@@H](CO)C(=O)N[C@H](C(=O)N[C@@H](CC(=O)O)C(=O)N[C@@H](Cc1ccc(OP(=O)(O)O)cc1)C(=O)N[C@@H](CC(C)C)C(=O)N[C@@H](C)C(=O)N[C@@H](CC(C)C)C(=O)N[C@@H](CC(=O)O)C(=O)N[C@@H](Cc1ccccc1)C(=O)N[C@@H](CCC(N)=O)C(N)=O)C(C)C)[C@@H](C)O
full-length SHP2^T42A
  EC50: 0.902 µM
full-length SHP2^WT
  EC50: 8.52 µM

## CC[C@H](C)[C@H](NC(=O)[C@H](Cc1ccc(OP(=O)(O)O)cc1)NC(=O)[C@H](CC(N)=O)NC(=O)[C@H](CC(C)C)NC(=O)CNC(=O)[C@H](CC(N)=O)NC(=O)[C@H](CCC(=O)O)NC(=O)[C@H](CC(C)C)NC(C)=O)C(=O)N[C@@H](CC(=O)O)C(=O)N[C@@H](CC(C)C)C(=O)N[C@@H](CC(=O)O)C(=O)N[C@@H](CC(C)C)C(=O)N[C@H](C(N)=O)C(C)C
full-length SHP2^T42A
  EC50: 0.581 µM
full-length SHP2^WT
  EC50: 1.75 µM

## CC[C@H](C)[C@H](NC(=O)[C@H](CC(N)=O)NC(=O)[C@@H](NC(=O)[C@H](Cc1ccc(OP(=O)(O)O)cc1)NC(=O)[C@H](CCC(=O)O)NC(=O)CNC(=O)[C@@H]1CCCN1C(=O)[C@H](CO)NC(=O)[C@H](CCCCN)NC(=O)[C@@H]1CCCN1C(C)=O)C(C)C)C(=O)N[C@@H](CCC(=O)O)C(=O)N[C@@H](Cc1ccccc1)C(=O)NCC(N)=O
full-length SHP2^T42A
  EC50: 20 µM
full-length SHP2^WT
  EC50: 29.3 µM

## CSCC[C@H](NC(=O)[C@H](CC(C)C)NC(=O)[C@H](CCC(N)=O)NC(=O)[C@H](C)NC(=O)[C@H](Cc1ccc(OP(=O)(O)O)cc1)NC(=O)[C@H](CC(N)=O)NC(=O)[C@H](CC(C)C)NC(=O)[C@H](C)NC(=O)[C@H](C)NC(=O)[C@H](CCCCN)NC(=O)[C@H](CCCCN)NC(C)=O)C(=O)N[C@@H](Cc1ccccc1)C(=O)N1CCC[C@H]1C(N)=O
full-length SHP2^T42A
  EC50: 0.735 µM
full-length SHP2^WT
  EC50: 1.32 µM

## CC(=O)N[C@@H](C)C(=O)N[C@@H](CCCCN)C(=O)N[C@@H](CO)C(=O)NCC(=O)N[C@@H](C)C(=O)N[C@H](C(=O)N[C@@H](Cc1ccc(OP(=O)(O)O)cc1)C(=O)N[C@@H](CO)C(=O)N[C@@H](CCC(=O)O)C(=O)N[C@@H](CC(C)C)C(=O)N[C@@H](CC(N)=O)C(=O)N[C@@H](Cc1ccccc1)C(=O)NCC(N)=O)C(C)C
full-length SHP2^T42A
  EC50: 32.7 µM
full-length SHP2^WT
  EC50: 233 µM

## CC(=O)N1CCC[C@H]1C(=O)N[C@H](C(=O)N[C@@H](Cc1ccccc1)C(=O)N[C@@H](CO)C(=O)N[C@H](C(=O)N[C@@H](CC(=O)O)C(=O)N[C@@H](Cc1ccc(OP(=O)(O)O)cc1)C(=O)NCC(=O)N[C@@H](CCC(=O)O)C(=O)N[C@@H](CC(C)C)C(=O)N[C@@H](CC(=O)O)C(=O)N[C@@H](Cc1ccccc1)C(=O)N[C@@H](CCC(N)=O)C(N)=O)C(C)C)C(C)C
full-length SHP2^T42A
  EC50: 2.89 µM
full-length SHP2^WT
  EC50: 18.9 µM

## CC[C@H](C)[C@H](NC(=O)[C@@H](NC(=O)[C@H](C)NC(=O)[C@H](Cc1ccc(OP(=O)(O)O)cc1)NC(=O)[C@H](CCC(=O)O)NC(=O)[C@@H](NC(=O)[C@H](CCC(N)=O)NC(=O)[C@H](CCC(=O)O)NC(=O)[C@@H]1CCCN1C(=O)[C@@H](NC(C)=O)C(C)C)[C@@H](C)O)[C@@H](C)O)C(=O)N[C@H](C(=O)N[C@@H](Cc1ccccc1)C(=O)N1CCC[C@H]1C(N)=O)C(C)C
full-length SHP2^T42A
  EC50: 0.88 µM
full-length SHP2^WT
  EC50: 5.37 µM

## CC[C@H](C)[C@H](NC(=O)[C@H](CC(=O)O)NC(=O)[C@H](C)NC(=O)[C@H](Cc1ccc(OP(=O)(O)O)cc1)NC(=O)[C@H](CCCCN)NC(=O)[C@@H](NC(=O)[C@H](CC(=O)O)NC(=O)CNC(=O)[C@H](CCCCN)NC(=O)[C@H](CCSC)NC(C)=O)C(C)C)C(=O)N[C@@H](CCC(=O)O)C(=O)N[C@@H](CO)C(=O)N[C@@H](CO)C(N)=O
full-length SHP2^T42A
  EC50: 15.1 µM
full-length SHP2^WT
  EC50: 90.5 µM
